Assay results as given in US20260327263A1, “Anti-Bacterial Peptides” (priority 2023, published 2026).
“And” between values parts separate entries of the source, which are not always exact repeats. Equal entries are not always repeated. “Also recorded” adds a separate entry of the source. Where no end group is shown, it is not given here.

Assays:
Format in all cases: cell-based
[1] = tested on: Pseudomonas aeruginosa (PA); test: Antimicrobial resistance evolution assay, PA; details: for development of antimicrobial resistance, PA: serial passaging, 28 days, resistance = >4-fold MIC change
Excerpt: The development of antimicrobial resistance is defined by greater than a 4-fold change to their initial minimum inhibitory concentration (MIC) at day 1. Exemplary bacteria strains Pseudomonas aeruginosa (PA) and Staphylococcus aureus (SA) are subjected to continuous daily serial passaging over several days, with treatment of exemplary variant peptides E1AM2 (SEQ ID NO: 2) and Q19L (SEQ ID NO: […]) at subinhibitory concentrations. […] The treatments were discontinued when the MIC increased by more than four-fold from the initial MIC or when MIC reached >100 μM.
Briefly, sequential passaging of PA, and SA cells was done with sub-inhibitory concentrations of antibiotics or E1AM2 up to 4 weeks. The cells grown in those concentrations of antibiotics or peptides were diluted to A600 nm (OD600) of ~0.2 and serially passaged daily with the same concentrations at 37° C. with agitation at 24 h intervals.

human keratinocytes = test: 2D scratch assay, keratinocyte migration
Experimental: Wound healing is directly associated with the migration speed of keratinocytes. The migration speed of human keratinocytes in presence of E1AM2, V8L (SEQ ID NO: 19), and Q19L variants is tested in comparison with pexiganan (SEQ ID NO: 54). Migration speed of human keratinocytes assessed in a 2D scratch assay at D 0 and D 2 timepoints. Decrease in wound area over time was measured by applying an ImageJ plugin ‘Wound Healing Size Tool’ on bright-field images. The change in wound area over the course of 48 hours was used as a measure of the migration speed of keratinocytes. Each value is the mean±SD (n=3). The p-value was calculated using ANOVA for multiple comparisons (Dunnett's multiple comparisons test). **** p<0.0001. *** p<0.001. ** p <0.01. * p<0.05. […] Both peptides healed wound faster within their respective MIC and MBC concentrations. […] SEQ ID NO: 27=Q19L; SEQ ID NO: 2=E1AM2; SEQ ID NO: 19=V8L.
Wound closure was compared with the untreated samples (circle, red highlight). For improved clarity, error bars have been omitted from this representation. […] Each value is the mean±SD (n=3). Statistical significance was assessed using ANOVA for multiple comparisons (Dunnett's multiple comparisons test). **** p<0.0001, *** p<0.001, ** p<0.01, *p<0.05, ns denotes nonsignificance, p >0.05.
Wound areas of the human keratinocyte culture were assessed in presence of peptides in a 2D scratch assay at the 0 hour, and 48-hour time points by applying an ImageJ plugin, ‘Wound Healing Size Tool’ on brightfield images. Quantification of wound width was calculated by obtaining the averaged Euclidean distance between each paired pixel at the lateral wound edges. The change in wound area over the course of 48 hours was used as a measure of the migration speed of keratinocytes.
Using the inverted BioTek Lionheart LX Automated Microscope, brightfield images were obtained at 4× magnification to observe the wound area at timepoints 0 (before treatment) and 48 hours-post treatment. Microscopy settings were maintained as focus offset (781.3 μm), illumination (2), integration Time (21) with no gain. To cover the entire well, montage images of four rows by three columns were stitched together by enabling the “image stitching” function and images were saved in tiff-format.

[2] = tested on: Pseudomonas aeruginosa (PA); test: Time-kill assay, Pseudomonas aeruginosa; details: for time to kill PA (in words): 1X MBC; for Time kill PA, >99% killing: at 1X MBC, * indicates killing within seconds
Experimental: The bactericidal abilities of the variant peptides are not only effective, but also fast-acting. […] The killing kinetics are detailed in Table 11 below.
Pseudomonas aeruginosa (PA) and Staphylococcus aureus (SA) strains were grown as per CLSI guidelines. AMPs were added to the bacterial cultures at their 1X MBC concentrations. Upon treatment, the bacterial cultures were enumerated for viable counts immediately within 1 min, 5 min, 15 min, 30 min and 60 min post-treatments.

[3] = tested on: Staphylococcus aureus (SA); test: Broth microdilution anti-bacterial assay (CLSI), Staphylococcus aureus; details: SA; for MIC: overnight, 37° C., ≥99% inhibition; for MBC: ≥99% killing
[4] = tested on: human red blood cells (hRBCs); test: Hemolysis assay; details: for minimum concentration corresponding to 10% hemolysis (HC) / hemolysis (in words): hRBCs; for minimum concentration corresponding to 10% hemolysis (HC): 37° C.; for hemolysis (in words): FIG. 8 up to 100 μM
Experimental: The hemolytic score of the peptide variants and pexiganan (SEQ ID NO: 54) are compared to a strong hemolytic peptide, melittin 12 as a control. […] The minimum peptide concentration corresponding to 10% hemolysis (minimal hemolysis concentration, HC) of E1AM2=50 μM, V8LQ19L=12.5 μM, V8LQ19L C-2=3.125 μM, and pexiganan=12.5 μM respectively. Readings of the melittin at 3.125 μM were normalised to 100%.
Examination of hemolytic activity of ultra-short peptides was performed by isolating the red blood cells (RBCs) from human blood samples by centrifugation (1000 g, 4° C., 10 min) and resuspension in 27 mL PBS. This washing step was repeated four times before the RBCs were diluted to a 10% (v/v) suspension. […] Hemolytic properties of E1AM2 and pexiganan were evaluated with melittin used as a positive control, and PBS as a negative control. The plates were incubated at 37° C., for 30 min and then centrifuged (1258 g, 4° C., 6 min). 75 μL of supernatant were transferred into a flat-bottom clear 96-well plate and the OD576 nm was read. Readings of the melittin sample at 3.125 μM were normalized to 100%.

Row | Substance | AMR prevention / resistance induction ([1]; Table 15: in PA and SA, bacteria not named) | development of antimicrobial resistance, PA [1] | wound closure, 2D scratch (human keratinocytes; up to 16X MBC) | time to kill PA (in words) [2] | Time kill PA, >99% killing [2] | MIC [3] | MIC ([3]; listed as VBLQ19L) [µM] | MBC [3] [µM] | MBC ([3]; listed as VBLQ19L) [µM] | minimum concentration corresponding to 10% hemolysis (HC) ([4]; 30 min) [µM] | hemolysis (in words) [4] | migration speed of keratinocytes (human keratinocytes; 48 h, E1AM2 3.125-12.5 μM, Q19L 3.125-6.25 μM) | hemolysis ([4]; at respective MIC/MBC concentrations, melittin 3.125 μM = 100%, 30 min)
1 | KKLLKKWLKLSKKALKLALSL-NH2 [V8LQ19L] | Prevent AMR | effective in preventing the acquisition of AMR | did not impair wound healing | within seconds | 1* min | 1.56 µM | 1.56 | 1.56 | 1.56 | 12.5 | do not cause hemolysis |  | 
2 | E1AM2: untagged (E1AM2), KKLLKKWVKLSKKALKLAQSL |  | prevented resistance acquisition |  | within minutes | 1 min | 6.25 µM and 6.28 µM |  | 12.5 |  | 50 | do not cause hemolysis | increase keratinocyte migration; also recorded: increased the migration speed of keratinocytes significantly | ~ 0%
